Experimental data from ChEMBL document CHEMBL4689842, “EUbOPEN Chemogenomics Library wave 1” (2021).

How the values were obtained:
Format in all cases: toxicity, cell-based
[1] = tested on: U2OS; test: Incucyte cell viability with U2OS; details: human, 10 µM, compound concentration 10 uM
[2] = tested on: HEK-293T; test: Incucyte cell viability with HEK293T; details: human, 10 µM, compound concentration 10 uM
[3] = tested on: Fibroblast; test: Incucyte cell viability with human fibroblast; details: 10 µM, compound concentration 10 uM
[4] = 0 h, replicate number 1, timepoint 0 hours
[5] = 6 h, replicate number 2, timepoint 6 hours
[6] = 12 h, replicate number 1, timepoint 12 hours
[7] = 18 h, replicate number 1, timepoint 18 hours
[8] = 24 h, replicate number 1, timepoint 24 hours
[9] = 6 h, replicate number 1, timepoint 6 hours
[10] = 12 h, replicate number 2, timepoint 12 hours
[11] = 18 h, replicate number 2, timepoint 18 hours
[12] = 24 h, replicate number 2, timepoint 24 hours
[13] = 0 h, replicate number 2, timepoint 0 hours
Further: filed as whole numbers so only -1 and 0 and 1 occur.

Compound | Growth Rate [1, 4] | Growth Rate [1, 5] | Growth Rate [1, 6] | Growth Rate [1, 7] | Growth Rate [1, 8] | Growth Rate [2, 4] | Growth Rate [2, 9] | Growth Rate [2, 6] | Growth Rate [2, 7] | Growth Rate [2, 8] | Growth Rate [3, 4] | Growth Rate [3, 9] | Growth Rate [3, 10] | Growth Rate [3, 7] | Growth Rate [3, 8] | Growth Rate [1, 12] | Growth Rate [2, 13] | Growth Rate [3, 6] | Growth Rate [1, 9] | Growth Rate [3, 11] | also measured
CC1CCN(CC[C@H]2CCCN2S(=O)(=O)c2cccc(O)c2)CC1.Cl | 0 | 1 | 1 | 1 | 1 | 0 | 1 | 1 | 1 | 1 | 0 | 1 | 1 | 1 | 1 | – | – | – | – | – | Growth Rate [2, 10]: 0
O=C(O)C1CN(Cc2ccc(-c3nc4cc(Cc5ccccc5F)ccc4s3)c(F)c2)C1 | 0 | 0 | 1 | 0 | 1 | 1 | 0 | 0 | 0 | 0 | 0 | 1 | – | 1 | 1 | 0 | 0 | 1 | – | – | Growth Rate [1, 10]: 0; Growth Rate [1, 11]: 1; Growth Rate [3, 5]: 0
Cn1c(CNc2cccc(C(=O)NCc3ccccc3C(F)(F)F)c2)nnc1-c1ccncc1 | – | – | 0 | 0 | 0 | 0 | – | – | – | – | 1 | 0 | – | 0 | 0 | – | – | 0 | 0 | – | Growth Rate [1, 13]: 0; Growth Rate [1, 10]: 1; Growth Rate [2, 12]: 1; Growth Rate [3, 13]: 0
COc1ccc(S(=O)(=O)c2cc(OC)ccc2S(=O)(=O)c2ccc([C@H](C)NS(C)(=O)=O)cc2)cc1 | 0 | 0 | 0 | 1 | 1 | 1 | 0 | 1 | 1 | 1 | 0 | – | 1 | – | 1 | 0 | 0 | – | – | 1 | Growth Rate [1, 10]: 1; Growth Rate [1, 11]: 0; Growth Rate [2, 5]: 1; Growth Rate [3, 13]: 1; Growth Rate [3, 5]: 0
Cc1csc(NC(=O)c2cc(F)cc(Oc3cncnc3)c2)n1 | – | 0 | 0 | 0 | 0 | 0 | 1 | 0 | 1 | 1 | 0 | 0 | – | 1 | 1 | 1 | – | 0 | 1 | 0 | Growth Rate [1, 11]: 1; Growth Rate [2, 10]: 1; Growth Rate [2, 11]: 0; Growth Rate [2, 12]: 0; Growth Rate [3, 12]: 0
O=C(O)C1CN(Cc2ccc(OCc3ccc(Cl)c(Cl)c3)cc2)C1 | 0 | 0 | 1 | 0 | 1 | – | 0 | 0 | 0 | 0 | 1 | 0 | – | 0 | 0 | 0 | 0 | 0 | – | – | Growth Rate [1, 10]: 0
COc1cc2c(cc1NS(=O)(=O)c1ccc(Br)cc1C)n(C)c(=O)n2C | 0 | – | 1 | 1 | 1 | 1 | 0 | 0 | 0 | 0 | 0 | – | 0 | 1 | 1 | – | 0 | 1 | 1 | – | Growth Rate [3, 5]: 0; Growth Rate [3, 12]: 0
CCOc1cn(-c2ccc(F)cc2C)nc1C(=O)Nc1ccc(Oc2ccnc3cc(OC)c(OC)cc23)c(F)c1 | – | – | 1 | 1 | 1 | 0 | 1 | – | – | 1 | 1 | 0 | 1 | 0 | 0 | – | – | 0 | – | 1 | Growth Rate [2, 5]: 0; Growth Rate [2, 10]: 0; Growth Rate [2, 11]: 1; Growth Rate [2, 12]: 0; Growth Rate [3, 5]: 1; Growth Rate [3, 12]: 1
CC(C)Oc1ccc(-c2c[nH]cc2CN(C)CCN)cc1 | 0 | – | 1 | 0 | 0 | 0 | – | – | – | – | 0 | – | 0 | 1 | 1 | 1 | 1 | – | 0 | 0 | Growth Rate [1, 11]: 1; Growth Rate [2, 12]: 1; Growth Rate [3, 5]: 0; Growth Rate [3, 12]: 0
CN1C[C@H](Nc2cnn(C)c(=O)c2Br)C[C@H](c2ccccc2)C1 | – | – | 1 | 1 | 1 | 1 | 0 | 0 | 0 | 0 | 0 | 0 | 0 | 1 | 1 | – | 0 | 1 | 0 | 0 | Growth Rate [1, 13]: 0; Growth Rate [3, 12]: 0
O=C(NCC(=O)N1CCCC1)Nc1ccc2cnccc2c1 | 0 | 0 | 1 | 1 | 1 | 0 | – | – | – | 1 | – | 0 | 1 | 0 | 0 | – | – | 0 | 1 | 1 | Growth Rate [1, 10]: 0; Growth Rate [2, 5]: 0; Growth Rate [2, 10]: 0; Growth Rate [2, 11]: 1; Growth Rate [2, 12]: 0; Growth Rate [3, 13]: 0; Growth Rate [3, 12]: 1
O=C1CCc2cc(Nc3cc(OC4CCOCC4)c([N+](=O)[O-])cc3Cl)ccc2N1 | 0 | 1 | 0 | 0 | 0 | 0 | – | – | – | – | – | 0 | 1 | 0 | 0 | 1 | 1 | 0 | 0 | – | Growth Rate [1, 10]: 1; Growth Rate [2, 5]: 1; Growth Rate [2, 10]: 1; Growth Rate [2, 12]: 1; Growth Rate [3, 13]: 0
COC(=O)C(Cc1ccc(OCCn2c(=O)sc3cc(C(=O)c4ccccc4)ccc32)cc1)C(=O)OC | 0 | 1 | 1 | 1 | 1 | 1 | 0 | 0 | 0 | 0 | 0 | – | 0 | 1 | 1 | – | 0 | 1 | – | 0 | Growth Rate [3, 5]: 0
O=C(N[C@@H](C1CC1)C(F)(F)F)c1cc(-c2cnn3cc(-c4ccc(F)cc4)cnc23)cs1 | – | – | 0 | 0 | 1 | 0 | – | – | – | – | 0 | 1 | – | 1 | 1 | 0 | 1 | 1 | 0 | – | Growth Rate [1, 13]: 1; Growth Rate [2, 5]: 1; Growth Rate [2, 10]: 1; Growth Rate [2, 12]: 1
O=C([O-])c1cc2ccccc2c(Cc2c(O)c(C(=O)[O-])cc3ccccc23)c1O.[Na+].[Na+] | 0 | 1 | 0 | 0 | 0 | 0 | 1 | 1 | 1 | 1 | 0 | 1 | – | 1 | 1 | 1 | – | 1 | – | – | Growth Rate [1, 10]: 1
CC1(C)CCC(C)(C)c2cc(C(=O)Nc3ccc(C(=O)O)cc3)ccc21 | 0 | 1 | 1 | 1 | 1 | 0 | 1 | 1 | 1 | 1 | 0 | 1 | 0 | 1 | 1 | – | – | 1 | – | 0 | Growth Rate [3, 5]: 0
